# Laboratory results reported in patent publication US12635715B2, “Isofucosterol and combinations of isofucosterol and a multiplicity of sterols as a nutrient for animals” (APIX BIOSCIENCES, priority 2022, dated 2026).
# Test system: honeybee colonies (Apidea nucs)
# Experiment: Brood production in Apidea nucs fed isofucosterol diets (Example 3)
# Assay type: in vivo, honeybees
# Conditions: as the concentration of isofucosterol in the diet increased; N>3 colonies/treatment
# Description: Honeybees: Fully functional insulated styrofoam Apidea nucs comprised 5 mini frames populated with adult workers and 1 mated laying queen bee were populated with 300-400 ml of young adult workers (˜N<1.000 bees of mixed ages).
# Each treatment was tested with 3-6 colonies; each colony was fed with a 60-100 g patty (solid diet) on the top feeder fitted with a mesh floor. Diet was fed on the first day and again on day 6; the quantity consumed was measured on day 6 and day 15. If no larvae or eggs/queen are observed by day 6 then the experiment is terminated. The number of capped brood cells was counted on day 15. The number of bee seams was estimated during each inspection. Sugar syrup (34%) and water was provided in feeders inside the tent to prevent carbohydrate starvation and to stimulate foraging activity.
# In Example 3, bees were fed with a diet containing 10-18% protein, 6% fat, 1% vitamins/minerals and >75% carbohydrates.
# As the concentration of isofucosterol increased, the amount of brood produced in each colony increased (N>3 colonies/treatment). The pupae, and the number of new adults was counted over the entire 10-week period.
smiles,measurement,value
"C/C=C(/CC[C@@H](C)[C@H]1CC[C@H]2[C@@H]3CC=C4C[C@@H](O)CC[C@]4(C)[C@H]3CC[C@]12C)C(C)C [isofucosterol, Isofucosterol]",amount of brood produced in each colony,increased
